pIC50: −log10 of the molar value.
How the values were obtained:
TRPA1 = system: TRPA1; parameters: method as in PMID 17686976, PMID 18954467; conditions: TRPA1-mediated calcium flux ref 46, 47; cited from earlier work
guinea-pig lung slices = assay: TRPA1 agonism in lung slices (airway narrowing, histamine release); conditions: data not shown
Procedure: Lung slices were used for OA and histamine induced airway narrowing studies. In order to do this, lung slices were placed in 1 ml medium and fixed with a plastic ring. After 30 min pre-treatment with the TRPA1 antagonist BI01305834 (0.01, 0.1, 1 or 10 µM) or the vehicle (10% cyclodextrin) OA (10^–5-10^2 µg.ml^−1) or histamine (10^–8-10^–2 M) dose–response curves were established. Using a microscope (Eclipse, TS100; Nikon) time-lapse images (1 frame per 2 s) of the lung slices were captured. The airway luminal area was quantified using image acquisition software (NIS-elements; Nikon) and expressed as percentage of basal area, as described previously.
Lung slices were used for OA-induced histamine determinations, with separate slices for each condition individually. BI01305834 and vehicle pre-treated lung slices were challenged with OA (10 µg.ml^−1) for 5 min. […] Histamine levels of original supernatant and homogenized lung slice supernatant were assessed by liquid chromatography in combination with isotope dilution tandem mass spectrometry (LC–MS/MS). […] Inter-assay imprecision (n = 20 days) was < 2.9% at three different levels (60, 986, 3873 nM, respectively) and limit of quantification was 3.0 nM. Histamine release was calculated as percentage of total histamine present in both supernatant and slice. […]

Compound	pIC50 (TRPA1)	induction of airway narrowing (guinea-pig lung slices)	induction of histamine release (guinea-pig lung slices)
CC(C)c1ccc(NC(=O)Cn2cnc3c2c(=O)n(C)c(=O)n3C)cc1 [HC030031]	5.12 to 5.21		
C=CCN=C=S [AITC, allyl isothiocyanate]		unable to induce	unable to induce
